Earlier results on one molecule are cited in patent US8133904B2, “Cannabinoid receptor antagonists/inverse agonists useful for treating obesity” (Jenrin Discovery, Inc., priority 2007, dated 2012).

The conditions of the data set: patients with type 2 diabetes not treated with other anti-diabetic medications; after six months of treatment; baseline value 7.9.

With `Cc1c(C(=O)NN2CCCCC2)nn(-c2ccc(Cl)cc2Cl)c1-c1ccc(Cl)cc1` [rimonabant], the HbA1c levels lowered is listed as 0.8%.
